Columns and labels:
[1] = test system: TNF-α production from the THP-1 cell culture after LPS stimulation; experiment: LPS-induced TNF-α production in PMA-differentiated THP-1 macrophage culture (ELISA); assay type: cell-based, human; settings: for TNF-α production after LPS: 1 h before 100 ng/mL LPS, 24 h; for TNFα in medium: LPS 100 ng/mL, LPS alone 8.02±0.42
Experimental: (§1) THP-1 cells were grown in the RPMI-1640 medium containing 10% fetal bovine serum at 37° C. in 5% CO2. The cells were differentiated to macrophages after treatment of the culture with 100 nM PMA for 24 hours. The cell suspension (5×10^5) was added in 0.5 mL into each well of the tissue culture plates. For each experiment, naloxone was prepared immediately before use. LPS was dissolved in sterile water and stored at −70° C. in aliquots. LDL was isolated from human endotoxin-free heparin plasma and was oxidized using CuSO4. In brief, LDL (1 mL, 1 mg/mL) was dialyzed in 500 mL phosphate-buffered saline (PBS, pH 7.4) overnight. Copper sulfate was added to a final concentration of 5 μM, and the LDL was allowed to oxidize at room temperature for 24 hours.
The TNF-α level in the supernatant was determined by ELISA.
(§2) The supernatants were harvested and the TNF-α, IL-6, and MCP-1 levels were determined by ELISA. Superoxide production in the THP-1 cell culture was measured by lucigenin-enhanced chemiluminescence as described previously (Khadour F H, Panas D, Ferdinandy P, et al. Am J Physiol Heart Circ Physiol, 28:H1108-15 2002). LPS-treated THP-1 cells were treated with PBS containing 1.25 mM lucigenin, and counts were obtained for a 10-minute period in a luminometer (Berthold Technologies, Germany) as relative light units (RLU) emitted. Background counts determined in cell-free preparations were subtracted. Superoxide levels were reported as RLU per 10 minutes and were normalized to the volume (mL) of cell suspension added (i.e., RUL/10 min/mL).
To investigate the DM effect on macrophage activation, determined the effective DM concentrations were first needed. In a pilot experiment, the effective DM concentration that inhibited TNF-α production from macrophages was examined. […] The THP-1 cell culture was pretreated for 1 hour with various concentrations of DM (1-10^−8 μM) prior to treatment with 100 ng/mL LPS for 24 hours. The TNF-α level in the supernatant was determined by ELISA. […] One μM DM could reduce TNF-α production up to 44 percent in the THP-1 cell culture after LPS stimulation (Table 3). Therefore, subsequent experiments were performed with these effective DM concentrations (0.01, 0.1, and 1 μM).

[2] = test system: TNF-α production from the THP-1 cell culture after LPS stimulation; experiment: as above; assay type: cell-based, human; settings: for TNF-α in medium: LPS, LPS alone 8.85±0.81; for TNF-α production after LPS: 1 h before 100 ng/mL LPS, 24 h
[3] = test system: superoxide in the thoracic aorta; experiment: Superoxide production in thoracic aorta of apoE-deficient mice, lucigenin chemiluminescence; assay type: in vivo; settings: 10 weeks, controls 534,000±145,000
Experimental: (§3) ApoE-deficient mice were treated daily with DM 5 mg/kg/day (n=9), 10 mg/kg/day (n=9), 20 mg/kg/day (n=9) or 40 mg/kg/day (n=11) for 10 weeks. Production of superoxide in PMN (1×10^6 cells/mL PBS) (A) was measured by lucigenin-enhanced chemiluminescence. The results are expressed as mean±SD. (P<0.05, control versus 10 mg/kg/day; P<0.001, control versus 20 mg/kg/day and 40 mg/kg/day). Production of superoxide in the thoracic aorta (B) was also measured by lucigenin-enhanced chemiluminescence. The results are expressed as mean±SD. (P<0.05, control versus 10 mg/kg/day and 40 mg/kg/day; P<0.01, control versus 20 mg/kg/day).
(§4) Having established the DM inhibitory effect on macrophage activation and NADPH oxidase, we next examined the functional consequences of which in vivo. […] Sections of left carotid arteries from the mice were stained with DHE and then imaged with a laser scanning confocal microscope.

[4] = test system: superoxide production in PMN; experiment: Superoxide production in PMN of apoE-deficient mice, lucigenin chemiluminescence; assay type: in vivo; settings: controls 519,000±115,000
Experimental: as §3, §4

[5] = test system: TNF-α release from THP-1 cells after oxLDL stimulation; experiment: oxLDL-induced TNF-α release in THP-1 macrophage culture (ELISA); assay type: cell-based, human; settings: for TNF-α in medium: oxLDL, oxLDL alone 2.64±0.61; for TNFα in medium: oxLDL 10 μg/mL, oxLDL alone 1.70±0.06
Experimental: as §1, §2

[6] = test system: NADPH oxidase-deficient mice; settings: Zhang et al. 2004; cited from earlier work
[7] = test system: MCP-1 release from THP-1 cells after oxLDL stimulation; experiment: oxLDL-induced MCP-1 release in THP-1 macrophage culture (ELISA); assay type: cell-based, human; settings: 0.01 μM pretreatment, oxLDL alone 2.23±0.34
Experimental: as §1, with “For each experiment, naloxone was prepared immediately before use.” left out
as §2, with “Superoxide levels were reported as RLU per 10 minutes and were normalized to the volume (mL) of cell suspension added (i.e., RUL/10 min/mL).” left out

## COc1ccc2c(c1)[C@]13CCCC[C@@H]1[C@H](C2)N(C)CC3 [DM, (+)-3-methoxy-17-methyl-9α,13α,14α-morphinan]
[1]; DM 0.01 μM pretreatment, LPS, LPS alone 8.85±0.81
  TNF-α in medium: 6.93 ± 0.76 ng/mL
[1]; DM pretreatment 1 μM
  TNF-α production after LPS: 56 ± 10 % control
[1]; DM pretreatment 10^−2 μM
  TNF-α production after LPS: 74 ± 4 % control
[1]; DM pretreatment 10^−6 μM
  TNF-α production after LPS: 83 ± 3 % control
[1]; One μM DM, THP-1 cell culture after LPS stimulation
  reduction of TNF-α production: up to 44%
[1]; THP-1, after LPS stimulation
  most effective DM concentrations that suppressed macrophage TNF-α production: 0.01 to 1 µM
[2]; DM 0.1 μM pretreatment
  TNF-α in medium: 6.42 ± 0.73 ng/mL
[2]; DM 1 μM pretreatment
  TNF-α in medium: 5.85 ± 1.12 ng/mL
[2]; DM pretreatment 10^−1 μM
  TNF-α production after LPS: 72 ± 2 % control
[2]; DM pretreatment 10^−4 μM
  TNF-α production after LPS: 81 ± 9 % control
[2]; DM pretreatment 10^−8 μM
  TNF-α production after LPS: 95 ± 7 % control
[3]; 5 mg/kg, P=NS
  superoxide in the thoracic aorta: 424,000±141,000 RLU/15 min
[3]; 10 mg/kg
  superoxide in the thoracic aorta: 377,000±97,000 RLU/15 min
[3]; 20 mg/kg
  superoxide in the thoracic aorta: 341,000±94,000 RLU/15 min
[3]; 40 mg/kg
  superoxide in the thoracic aorta: 379,000±84,000 RLU/15 min
[4]; 5 mg/kg/day 10 weeks, P=NS
  PMN production of superoxide: 460,000±138,000 RLU/15 min
[4]; 10 mg/kg/day 10 weeks
  PMN production of superoxide: 390,000±63,000 RLU/15 min
[4]; 20 mg/kg/day 10 weeks
  PMN production of superoxide: 328,000±82,000 RLU/15 min
[4]; 40 mg/kg/day 10 weeks
  PMN production of superoxide: 328,000±82,000 RLU/15 min
[5]; DM 0.01 μM pretreatment
  TNF-α in medium: 1.80 ± 0.53 ng/mL
[5]; DM 0.1 μM pretreatment
  TNF-α in medium: 1.75 ± 0.33 ng/mL
[5]; DM 1 μM pretreatment
  TNF-α in medium: 1.77 ± 0.42 ng/mL
[6]
  anti-inflammatory effect: anti-inflammatory effect was not observed

## C=CCN1CC[C@]23c4c5ccc(O)c4O[C@H]2C(=O)CC[C@@]3(O)[C@H]1C5 [Naloxone, 17-allyl-4,5α-epoxy-3,14-dihydroxymorphinan-6-one]
[1]; 0.1 μM pretreatment
  TNFα in medium: 4.10 ± 0.37 ng/mL
[1]; 1 μM pretreatment
  TNFα in medium: 4.41 ± 0.36 ng/mL
[1]; 0.01-1 μM, THP1 cell culture after LPS stimulation
  reduction of TNFα production: 50%
[2]; 0.01 μM pretreatment, LPS 100 ng/mL, LPS alone 8.02±0.42
  TNFα in medium: 4.28 ± 0.39 ng/mL
[2]; inhibition of TNF-α production, THP-1, LPS
  most effective naloxone concentration range: 0.01 to 1 µM
[2]; naloxone pretreatment 1 μM
  TNF-α production after LPS: 55 ± 2 % control
[2]; naloxone pretreatment 10^−1 μM
  TNF-α production after LPS: 51 ± 6 % control
[2]; naloxone pretreatment 10^−2 μM
  TNF-α production after LPS: 53 ± 6 % control
[2]; naloxone pretreatment 10^−3 μM
  TNF-α production after LPS: 67 ± 3 % control
[2]; naloxone pretreatment 10^−4 μM
  TNF-α production after LPS: 74 ± 7 % control
[2]; naloxone pretreatment 10^−5 μM
  TNF-α production after LPS: 93 ± 4 % control
[2]; naloxone pretreatment 10^−6 μM
  TNF-α production after LPS: 90 ± 10 % control
[7]
  MCP-1 in medium: 0.95 ± 0.28 ng/mL
[5]; 0.01 μM pretreatment
  TNFα in medium: 0.85 ± 0.12 ng/mL
[5]; 0.1 μM pretreatment
  TNFα in medium: 0.62 ± 0.04 ng/mL
[5]; 1 μM pretreatment
  TNFα in medium: 0.60 ± 0.05 ng/mL

From patent US7820689B2, “Methods and compositions for preventing or treating cardiovascular disease” (priority 2006, dated 2010)
